Patent EP4692071A1, “PHOTOCHROMIC COMPOUND, NAPHTHOL DERIVATIVE, CURABLE COMPOSITION, OPTICAL ARTICLE, LENS, AND EYEGLASS” (TOKUYAMA CORPORATION, priority 2023, dated 2024)
Several values for one entry are separate records, joined by “and”; a condition that tells them apart may be missing. Equal entries are not always repeated.

Legend:
Format in all cases: physicochemical
[1] = Residual rate (A90/A0×100) after 90 h accelerated deterioration in xenon weather meter X25, color developing durability; details: photochromic laminate by coating method; xenon weather meter 90 hours
Method in brief: (§1)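 Each lens is coloured by 240 s of light at 23°C. Optical density is the irradiated-minus-dark absorbance at the maximum wavelength, and the half-life tracks the post-irradiation fade. A 90 h xenon weather-meter exposure precedes the second density reading used for the residual rate.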

[2] = 35°C color optical density (A35): absorbancy difference ε(240)-ε(0) after 240 s light irradiation at 35°C; details: photochromic laminate by coating method, 240 s irradiation
Method in brief: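 Color optical density at 35°C (A35) came from light exposure of the sample at 35°C lasting 240 seconds. At the first and second absorption wavelengths, the absorbancy before irradiation, ε(0), was subtracted from the absorbancy measured after irradiation, ε(240). This difference was taken as the measure of color optical density.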

[3] = Maximum absorption wavelength (λmax) after color development, spectrophotometer MCPD3000; details: photochromic laminate by coating method, 40 µm photochromic layer on thiourethane lens, 0.25 mmol compound per 100 g monomers
Method in brief: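 Read-out: absorbance at λmax, multichannel photodetector spectrophotometer. Colour density = ε(240) − ε(0), 240 s light, 23°C. τ1/2 = time for ε(240) − ε(0) to halve after light off. Residual rate compares density before and after 90 h xenon weathering.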

[4] = 23°C color fading half-life τ1/2 after 240 s light irradiation
Experimental: • [1] Maximum Absorption Wavelength (λmax): The maximum absorption wavelength after color development, measured using a spectrophotometer (instantaneous multichannel photodetector MCPD3000) manufactured by Otsuka Electronics Co., Ltd. was used as an indicator for the color tone during the color development. • [2] 23°C Color Optical Density (A23): A difference between an absorbancy measured after light irradiation at 23°C for 240 seconds {ε(240)} and an absorbancy without light irradiation ε(0) at the maximum absorption wavelength was used as an indicator for the color optical density. […] 35°C Color Optical Density (A35): A difference between an absorbancy measured after light irradiation at 35°C for 240 seconds {ε(240)} and an absorbancy without light irradiation ε(0) at the first and second absorption wavelengths was used as an indicator for the color optical density. […] 23°C color fading half-life [τ1/2 (sec.)]: A time required for the absorbancy of the sample at the maximum absorption wavelength to decrease to 1/2 of {ε(240)-ε(0)} when the light irradiation is terminated after the light irradiation at 23°C for 240 seconds, was used as an indicator for the color fading speed. The shorter this time, the higher the color fading speed. • [6] Residual rate (A90/A0×100): The obtained photochromic plastic lens was subjected to accelerated deterioration using a xenon weather meter X25 manufactured by Suga Test Instruments Co., Ltd. for 90 hours. Subsequently, the color optical density was evaluated before and after the test, then a color optical density before the test (A0) and a color optical density after the test (A90) were measured, and a ratio (A90/A0) was defined as a residual rate. The residual rate was used as an indicator for a color developing durability. The higher the residual rate, the higher the color developing durability.

[5] = 23°C color optical density (A23): absorbancy difference ε(240)-ε(0) after 240 s light irradiation at 23°C; details: photochromic laminate by coating method, 240 s irradiation, at the maximum absorption wavelength
Method in brief: as §1

[6] = High-temperature color development rate (A35/A23×100), temperature dependency; details: photochromic laminate by coating method
Method in brief: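 The sample was irradiated with light for 240 seconds at 23°C and separately at 35°C. The gain in absorbance over the unirradiated state, ε(240)−ε(0), gave the color optical densities A23 and A35. A35 divided by A23, multiplied by 100, expressed how well color development holds up at the higher temperature.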

Residual rate (%) [1]: 77%
A35 (-) [2]: 0.44 - and 0.48 -
Maximum absorption wavelength (nm) [3]: 468 nm and 597 nm
23°C color fading half-life [4]: 47 s
A23 (-) [5]: 0.66 - and 0.71 -
A35/A23 *100 (%) [6]: 67% and 68%
SMILES: COCCCC1(CCCOC)c2cc(Sc3c(C)cccc3C)ccc2-c2c1c1c(c3cc(OC)c(N(CCOC)c4ccc(C(F)(F)F)cc4)cc23)OC(c2ccc(OC)cc2)(c2ccc(OC)cc2)C=C1 [Example 57 Formula (132)]
